The record followed here is PubChem BioAssay (NCI).

Some test systems named below: NCI-H23 lung; U251 CNS; SK-MEL-2 melanoma; CAKI-1 renal; SN12C renal; SK-MEL-5 melanoma; OVCAR-3 ovarian; COLO 205 colon; SNB-75 CNS; NCI/ADR-RES ovarian.
Experiment in all cases: NCI tumour cell line growth inhibition, 48 h

Each structure is given as a SMILES string.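 All cell lines were grown in 96-well plates and treated with compound for 48 hours. Here, GI50 denotes the concentration required for 50% inhibition of growth. Definition used: TGI = concentration required for complete inhibition of growth.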

In the case of `CC1(C)OC(=O)C(=C2CCC(C(=O)Nc3cccc(C(F)(F)F)c3)N2)C(=O)O1` (stereo not given), the TGI with NCI-H23 lung is above 100 µM; in the assay with U251 CNS, above 100 µM; with SK-MEL-2 melanoma, above 100 µM; with CAKI-1 renal, 26.6 µM; in the assay with SN12C renal, above 100 µM; in the assay with SK-MEL-5 melanoma, above 100 µM. The TGI in the assay with OVCAR-3 ovarian, in the assay with COLO 205 colon and with SNB-75 CNS was above 100 µM each time.

On to `COc1cc2c3c(n(CCCNCCCNCCCN)c(=O)c2cc1OC)-c1cc2c(cc1C3=O)OCO2`, for which the GI50 with NCI-H23 lung was 13.5 µM; in the assay on U251 CNS, 46.2 µM; with SK-MEL-2 melanoma, above 100 µM; in the assay with CAKI-1 renal it was 26.3 µM; in the assay with SN12C renal, 32.9 µM; in the assay on SK-MEL-5 melanoma it was above 100 µM. The results for the GI50 in the assay on OVCAR-3 ovarian, with COLO 205 colon and in the assay on SNB-75 CNS were 0.879 µM, 46.1 µM and 12.8 µM, respectively. Moreover, the TGI with NCI-H23 lung, with U251 CNS, in the assay on SK-MEL-2 melanoma, with CAKI-1 renal, in the assay with SN12C renal and in the assay with SK-MEL-5 melanoma was above 100 µM throughout. Besides, the TGI in the assay with OVCAR-3 ovarian is 52.6 µM; in the assay with COLO 205 colon, above 100 µM; in the assay with SNB-75 CNS, above 100 µM.

Consider `CS(=O)(=O)Nc1cc(-c2ccc3ncnc(Nc4cccc(Cl)c4)c3c2)cnc1Cl`, for which the GI50 is 0.328 µM with NCI-H23 lung; 0.503 µM in the assay on U251 CNS; 1.19 µM in the assay with NCI/ADR-RES ovarian; 0.345 µM in the assay on SK-MEL-2 melanoma; 0.299 µM in the assay with CAKI-1 renal; 0.447 µM with SN12C renal. For the same compound, the GI50 in the assay on SK-MEL-5 melanoma was 0.35 µM; in the assay on OVCAR-3 ovarian it was 0.343 µM; in the assay with COLO 205 colon, 0.371 µM. The TGI in the assay with NCI-H23 lung came to 10.6 µM; in the assay with U251 CNS it was 2.68 µM; with NCI/ADR-RES ovarian, 12 µM; with SK-MEL-2 melanoma, 2.05 µM; in the assay on CAKI-1 renal, 7.71 µM; with SN12C renal, 51.2 µM. Also, the TGI with SK-MEL-5 melanoma came to 1.47 µM; in the assay with OVCAR-3 ovarian, 2.28 µM; with COLO 205 colon, 1.8 µM.

As for `O=C(O)CSc1n[nH]c(-c2ccco2)n1`, the TGI in the assay on NCI-H23 lung, in the assay with U251 CNS, in the assay on SK-MEL-2 melanoma, in the assay with CAKI-1 renal, in the assay on SN12C renal and in the assay on SK-MEL-5 melanoma was above 100 µM in each case. Also, the TGI with OVCAR-3 ovarian, with COLO 205 colon and with SNB-75 CNS was above 100 µM throughout.

Take `COc1cc(-c2nn(-c3cccc(NC(=O)CCNc4ccc(N5CCOCC5)cc4)c3)cc2-c2ccncc2)ccc1Cl`: the GI50 is 2.68 µM in the assay on NCI-H23 lung; 2.52 µM with U251 CNS; 4.09 µM in the assay on NCI/ADR-RES ovarian; 2.07 µM in the assay with SK-MEL-2 melanoma; 3.19 µM in the assay with SN12C renal; 1.95 µM in the assay with SK-MEL-5 melanoma. Further, the values for the GI50 in the assay with OVCAR-3 ovarian and in the assay on SNB-75 CNS were 2.45 µM and 4.22 µM, respectively. For the same compound, the TGI with NCI-H23 lung was 20.6 µM; in the assay on U251 CNS, 63 µM; in the assay on NCI/ADR-RES ovarian it was above 100 µM; with SK-MEL-2 melanoma, 5.64 µM; in the assay with SN12C renal, above 100 µM; with SK-MEL-5 melanoma it was 4.89 µM. In addition, the TGI in the assay with OVCAR-3 ovarian was 8.55 µM; with SNB-75 CNS it was above 100 µM.

`COc1cc(-c2nn(-c3cccc(NC(=O)CCN4CCN(c5ccccc5)CC4)c3)cc2-c2ccncc2)ccc1Cl`: the GI50 was 3.09 µM in the assay on NCI-H23 lung; 3.13 µM in the assay on U251 CNS; 3.18 µM in the assay with NCI/ADR-RES ovarian; 2.45 µM in the assay with SK-MEL-2 melanoma; 3.72 µM in the assay with SN12C renal; 2.19 µM with SK-MEL-5 melanoma. Also, the GI50 is 2.68 µM with OVCAR-3 ovarian and 4.13 µM with SNB-75 CNS. The TGI in the assay with NCI-H23 lung was above 100 µM; in the assay with U251 CNS, above 100 µM; in the assay on NCI/ADR-RES ovarian it was above 100 µM; with SK-MEL-2 melanoma it was 6.85 µM; in the assay on SN12C renal, above 100 µM; in the assay with SK-MEL-5 melanoma, 5.36 µM. Also, the figures for the TGI in the assay on OVCAR-3 ovarian and in the assay on SNB-75 CNS were 9.73 µM and above 100 µM, respectively.

As to `COc1ccc(-c2csc(Nc3cccc(-c4csc(C)n4)c3)n2)cc1`, the GI50 was 0.931 µM in the assay with NCI-H23 lung; 0.783 µM in the assay with U251 CNS; 0.534 µM with NCI/ADR-RES ovarian; 4.7 µM with SK-MEL-2 melanoma; 1.15 µM with CAKI-1 renal; 0.97 µM in the assay on SN12C renal. Besides, the GI50 in the assay with SK-MEL-5 melanoma is 1.19 µM; with OVCAR-3 ovarian it was 0.489 µM; with COLO 205 colon, 0.636 µM. Besides, the TGI in the assay on NCI-H23 lung is 10.1 µM; with U251 CNS, above 27.6 µM; in the assay on NCI/ADR-RES ovarian, 4.19 µM; with SK-MEL-2 melanoma, above 27 µM; in the assay on CAKI-1 renal it was above 14 µM; in the assay on SN12C renal, 7.96 µM. Besides, the TGI with SK-MEL-5 melanoma is 7.85 µM; in the assay on OVCAR-3 ovarian, above 10.8 µM; in the assay with COLO 205 colon, above 26.1 µM.

`Cc1cc(S(N)(=O)=O)c(S/C(=N\NS(=O)(=O)c2ccccc2)c2ccc(Cl)cc2)cc1Cl`: the GI50 in the assay with NCI-H23 lung is 87.9 µM; in the assay on U251 CNS, above 100 µM; in the assay with NCI/ADR-RES ovarian it was above 100 µM; in the assay on CAKI-1 renal, above 100 µM; in the assay with SN12C renal, 46.5 µM; in the assay with SK-MEL-5 melanoma, 67.9 µM. The GI50 was 47.6 µM in the assay on OVCAR-3 ovarian and 97.8 µM in the assay with COLO 205 colon. For the same compound, the TGI with NCI-H23 lung, in the assay with U251 CNS, with NCI/ADR-RES ovarian, in the assay with CAKI-1 renal, in the assay with SN12C renal and in the assay with SK-MEL-5 melanoma was above 100 µM throughout. Besides, the TGI in the assay with OVCAR-3 ovarian and in the assay on COLO 205 colon was above 100 µM throughout.
